We go through three molecules from article PMC8948406 (Journal for Immunotherapy of Cancer, 2022).

Series [1] deals with advanced solid tumors. To be noted: cited from earlier work.
The conditions of series [2]: for Cmax, Clast and tmax versus other part and niraparib monotherapy: first dose.
The nature of series [3]: Dostarlimab serum pharmacokinetics. Format: in vivo, human. The conditions noted are these: coadministration of niraparib, carboplatin–paclitaxel, or bevacizumab.
Series [4] concerns the target PD-1 receptors on CD3+ T-cells (Homo sapiens, UniProt Q15116). Kind of series: PD-1 receptor occupancy by flow cytometry. The series is classed as cell-based. To be noted: by end of treatment; parts A, B and D.
The test system of series [5] is non-squamous NSCLC. To be noted: combination with chemotherapy; cited from earlier work.

Read-outs that look alike come from different tables or passages of the source.

PD-1 receptors on CD3+ T-cells, sequence (Q15116 25-288): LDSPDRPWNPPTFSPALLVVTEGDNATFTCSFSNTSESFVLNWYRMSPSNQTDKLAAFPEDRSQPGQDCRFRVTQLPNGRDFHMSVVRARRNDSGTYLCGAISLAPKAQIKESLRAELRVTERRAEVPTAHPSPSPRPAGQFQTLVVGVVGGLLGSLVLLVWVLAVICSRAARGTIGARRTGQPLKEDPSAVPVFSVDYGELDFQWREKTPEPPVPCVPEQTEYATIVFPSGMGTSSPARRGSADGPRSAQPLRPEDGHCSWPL

In the case of `NC(=O)c1cccc2cn(-c3ccc([C@@H]4CCCNC4)cc3)nc12` [niraparib, [3S]-3-[4-[7-(aminocarbonyl)-2H-indazol-2-yl]phenyl] piperidine], the “Variability of exposure, monotherapy data” value in series [1] is “up to 66%”. Besides, in series [2] (200 mg), the “Cmax lower in part C than in part A” value came to 47.1%. In series [2] (200 mg, part A), the “Exposures (Cmax and AUClast) versus monotherapy” value is on record as “comparable to monotherapy”. Moreover, the “AUClast higher in part C than in part A” value in series [2] (300 mg QD) is recorded as “approximately 46%”. Moreover, the “AUClast lower than niraparib monotherapy” value in series [2] (300 mg, part A) came out at 9.6%. Also, in series [2] (300 mg, part C), the “AUClast higher than niraparib monotherapy” value was determined as 31.6%. Also, the “Cmax, Clast and tmax versus other part and niraparib monotherapy” value in series [2] (300 mg) was “consistent across both parts and similar to PK data for niraparib monotherapy”; in series [2] (300 mg, listed as Niraparib), “consistent in parts A and C”. For the same molecule, the “Variability of niraparib exposure” value in series [2] (regardless of dose and cohort) is ~ 50%.

“dostarlimab: PD-1 inhibitor; IgG4 humanized monoclonal antibody that binds with high affinity to PD-1”: in series [3], the “Effect of the combination partners on dostarlimab PK” value is “no observed impact”. Also, the “Overall mean PD-1 receptor occupancy” value in series [4] is 99.0%.

Regarding “pembrolizumab: anti-PD-1 antibody, given with chemotherapy in the cited trials”, in series [5], the “Grade ≥3 neutropenia” value is listed as 15.8%.
